Patent publication US7098231B2, “Viral polymerase inhibitors” (Boehringer Ingelheim International GmbH, priority 2003, dated 2006)

Target: T1, hepatitis C virus RNA dependent polymerase (NS5B) (Hepatitis C virus genotype 1b, UniProt P26663)
T1 construct: The C-terminal polyprotein cleavage product, NS5B, is the elongation subunit of the HCV replicase
Assay: biochemical
Protocol: Inhibition of NS5B RNA Dependent RNA Polymerase Activity
The compounds of the invention were tested for inhibitory activity against the hepatitis C virus RNA dependent polymerase (NS5B), according to the protocol described in WO 03/010141.

T1 sequence (P26663 2420-3010): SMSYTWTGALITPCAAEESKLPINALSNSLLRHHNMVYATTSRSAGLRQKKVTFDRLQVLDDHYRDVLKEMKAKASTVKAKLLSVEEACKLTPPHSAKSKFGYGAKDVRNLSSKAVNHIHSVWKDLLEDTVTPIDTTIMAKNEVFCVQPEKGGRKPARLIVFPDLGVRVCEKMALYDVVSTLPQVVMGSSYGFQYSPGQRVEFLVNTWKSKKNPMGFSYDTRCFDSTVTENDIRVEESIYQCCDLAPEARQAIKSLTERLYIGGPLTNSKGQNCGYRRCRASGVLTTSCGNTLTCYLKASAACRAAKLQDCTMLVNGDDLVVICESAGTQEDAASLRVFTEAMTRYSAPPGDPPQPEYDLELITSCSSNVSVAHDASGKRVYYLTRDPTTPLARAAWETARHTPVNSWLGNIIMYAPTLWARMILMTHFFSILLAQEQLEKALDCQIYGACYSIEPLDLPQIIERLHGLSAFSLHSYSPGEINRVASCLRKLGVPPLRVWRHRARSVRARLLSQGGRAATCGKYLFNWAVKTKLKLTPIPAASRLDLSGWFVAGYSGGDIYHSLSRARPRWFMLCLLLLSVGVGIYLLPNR

SMILES: COc1c(C(=O)NS(C)(=O)=O)ccc2c(C3CCCC3)c(-c3ccoc3)n(C)c12 [compound 201]
- IC50: < 1000 nM

SMILES: COc1c(C(=O)NS(=O)(=O)c2ccccc2)ccc2c(C3CCCC3)c(-c3ccoc3)n(C)c12 [compound 202]
- IC50: < 1000 nM

SMILES: Cn1c(-c2ccoc2)c(C2CCCCC2)c2cc(C(=O)NS(C)(=O)=O)ccc21 [compound 203]
- IC50: 1000 to 20000 nM

SMILES: Cn1c(-c2ccoc2)c(C2CCCCC2)c2cc(C(=O)NS(=O)(=O)c3ccccc3)ccc21 [compound 204]
- IC50: 1000 to 20000 nM
